Key:
Type in all cases: ADME, Microsome
[1] = Clearance in mouse liver microsomes at 1 uM incubated for 60 mins followed by NADPH generating system addition and measured by LC-MS/MS analysis; conditions: read-out: CLH
[2] = Half-life in mouse liver microsomes at 1 uM incubated for 60 mins followed by NADPH generating system addition and measured by LC-MS/MS analysis
[3] = Half-life in human liver microsomes at 1 uM incubated for 60 mins followed by NADPH generating system addition and measured by LC-MS/MS analysis
[4] = Clearance in human liver microsomes at 1 uM incubated for 60 mins followed by NADPH generating system addition and measured by LC-MS/MS analysis; conditions: read-out: CLH
[5] = Metabolic stability in mouse liver microsomes at 1 uM assessed as compound remaining incubated for 60 mins followed by NADPH generating system addition and measured by LC-MS/MS analysis; conditions: read-out: Stability

microsomal CLint at 1 µM [1] [µL/min/mg] | half-life at 1 µM [2] [h] | half-life at 1 µM [3] [h] | microsomal CLint at 1 µM [4] [µL/min/mg] | remaining at 1 h, 1 µM [5] [%] | SMILES
19.2 | 1.2 | 1.37 | 17 |  | CCC[C@@H]1C[C@@H](NC(=O)c2ccc(C(F)(F)F)[nH]c2=O)c2cc(C)ccc2N1
41.2 | 0.56 | 0.652 | 35.4 |  | CCC[C@H]1Oc2ccc(C)cc2[C@@H]1NC(=O)c1ccc(C(F)(F)F)[nH]c1=O
 |  |  |  | 105 | Cc1ccc2c(c1)[C@H](O)CC[C@H]2NC(=O)c1ccc(C(F)(F)F)[nH]c1=O
12.1 | 1.9 | 1.51 | 15.3 |  | CCC[C@H]1C[C@@H](NC(=O)c2ccc(C(F)(F)F)[nH]c2=O)c2cc(C)ccc2N1

Source: ChEMBL document CHEMBL5052845 (2021)
